This is an account of results in publication PMC6740044 (ACS Omega, 2019).

Bridge positions count the residues as written; N and C are the ends. Peptide text beside a SMILES is read from it.

Assay [1] has as its target Herceptin (human IgG1) (human). Nature of the assay: ITC. For orientation: ITC needs no label: the signal is the heat of the interaction.
The target in another assay is Herceptin (human IgG1) (Homo sapiens, UniProt P01857). Nature of the assay: Isothermal titration calorimetry. Particulars: ITC, 25 °C, single-site binding model, measured three times.
Sequence of Herceptin (human IgG1) (P01857 104-328): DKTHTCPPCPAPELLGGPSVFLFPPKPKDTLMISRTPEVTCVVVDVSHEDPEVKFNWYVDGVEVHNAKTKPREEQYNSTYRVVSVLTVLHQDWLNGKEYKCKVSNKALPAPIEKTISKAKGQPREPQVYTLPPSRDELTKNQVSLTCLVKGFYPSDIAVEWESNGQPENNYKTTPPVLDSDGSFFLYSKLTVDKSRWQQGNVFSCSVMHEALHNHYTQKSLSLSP
For assay [2], the target named is Herceptin (human IgG1) (human). Nature of the assay: SPR. On the technique in general: Surface plasmon resonance follows binding to a sensor surface in real time, without labels.

Broadly, the Kd is the constant that tells how readily two partners part at equilibrium. Take 15-Lys8Tle (peptide): the equilibrium dissociation constant (Kd) in assay [1] came out at 200 nM. `CC(=O)N[C@@H](CC(=O)O)C(=O)N[C@H]1CSSC[C@@H](C(=O)N[C@H](C(=O)N[C@@H](Cc2ccccc2)C(=O)N[C@@H](Cc2c[nH]cn2)C(N)=O)[C@@H](C)O)NC(=O)[C@H](Cc2c[nH]c3ccccc23)NC(=O)[C@H](C(C)C)NC(=O)[C@H](CC(C)C)NC(=O)[C@H](CCC(=O)O)NC(=O)CNC(=O)[C@H](CCCCN)NC(=O)[C@H](Cc2c[nH]cn2)NC(=O)[C@H](Cc2ccc(O)cc2)NC(=O)[C@H](C)NC1=O` [15-IgBP] (Ac-DCAYHKGELVWCTFH-NH2; disulfide 2-12): on Herceptin (human IgG1), the ΔG entry is reported as “–9.1 ± 0.0 kcal/mol”, the ΔH entry is on record as “–13 ± 0 kcal/mol” and the “–TΔS” value was determined as 3.5 ± 0.1 kcal/mol. As for 15-Lys8Phe (peptide), the Kd in assay [2] was found to be 40 nM.
